“Also recorded” adds a separate entry of the source.
Tests used:
[1] = test system: sciatic nerve ligation-induced mechanical hyperalgesia; assay: Sciatic nerve ligation-induced traumatic mononeuropathy, mechanical hyperalgesia in mice (dynamic plantar aesthesiometry); assay type: in vivo, male C57Bl/6 mice; details: mouse, injured paw, single dose 20 mg/kg i.p., 15 minutes after administration, vs postoperative control values
Experimental: (§1) The solutions were prepared freshly on the day of the experiment with sterile saline. SZV-1287 (prepared according to WO 2010/029379 A1) dissolved in saline and the solution was clear. The SZV-1911 (prepared according to WO2006/094201 and WO2005/014530) solution was prepared with Tween 80 and ethanol, stirred properly with a vortex, heated moderately to 42° C. and sonicated, but it was still opalescent. The i.p. administered volume was 0.2 ml/100 g body weight from 10 mg/ml in rats solution and 0.1 m/10 g body weight from 2 mg/ml solution to achieve the 20 mg/kg doses. The solvent of SZV-1911 was given to the vehicle-treated animals in the same volume.
Sciatic nerve ligation-induced traumatic mononeuropathy experiments were performed on male Wistar rats (250-300 g), and on male C57Bl/6 mice as well as resiniferatoxin- or formalin-induced hyperalgesia. […]
On the 3rd and on the 7th day following the nerve ligation, the mechano-nociceptive thresholds were determined directly before and 15 min after i.p. drug administration to observe the difference between pre-injection and post-injection thresholds in mice. We determined the developing cold allodynia following the sciatic nerve ligation at Days 3 and 7. […]
The mechanical touch sensitivity thresholds of the plantar surface of the paws was determined by aesthesiometry (Ugo Basile Dynamic Plantar Aesthesiometer 37400; Comerio, Italy). […]

[2] = test system: formalin-induced acute nocifensive behaviours and hyperalgesia; assay: Formalin-induced acute nocifensive behaviour and hyperalgesia in mice; assay type: in vivo, male C57Bl/6 mice; details: mouse
Experimental: as §1
Sciatic nerve ligation-induced traumatic mononeuropathy experiments were performed on male Wistar rats (250-300 g), and on male C57Bl/6 mice as well as resiniferatoxin- or formalin-induced hyperalgesia. The original breeding pairs of the animals were purchased from Charles River Ltd. All the animals were kept in the Animal Facility of the Department of Pharmacology and Pharmacotherapy at the University of Pécs at 24-25° C. provided with standard chow and water ad libitum. […]
The noxious heat threshold of the paw, defined as the lowest temperature evoking nocifensive behaviour—was measured with an increasing-temperature hot plate (IITC Life Science, Woodland Hills, Calif., USA). […]
The total duration of paw licking and lifting were expressed to representing the nociceptive behaviour. […] Mechanical hyperalgesia values were determined as % by comparing the nociceptive thresholds measured at 2 and 4 hours after the application to the initial threshold values. Results are expressed as means±s.e.m. of the thermo- and mechanonociceptive threshold changes of n=11-11 animals/groups. Data were analysed with One-way ANOVA following Bonferroni's post-test in comparison to determine differences between the pre- and post-injection values of the respective groups.

RTX-induced hyperalgesia = assay: Resiniferatoxin-evoked thermal and mechanical hyperalgesia in mice; assay type: in vivo, male C57Bl/6 mice; details: mouse; for drop of mechanonociceptive threshold after RTX at 2 hours: solvent group 47.1±6%; for acute neurogenic inflammatory heat allodynia: only significant in case of SZV-1287 after RTX
Experimental: as §1
(§2) Sciatic nerve ligation-induced traumatic mononeuropathy experiments were performed on male Wistar rats (250-300 g), and on male C57Bl/6 mice as well as resiniferatoxin- or formalin-induced hyperalgesia. The original breeding pairs of the animals were purchased from Charles River Ltd. All the animals were kept in the Animal Facility of the Department of Pharmacology and Pharmacotherapy at the University of Pécs at 24-25° C. provided with standard chow and water ad libitum.
(§3) The mechanical touch sensitivity thresholds of the plantar surface of the paws was determined by aesthesiometry (Ugo Basile Dynamic Plantar Aesthesiometer 37400; Comerio, Italy). This is an electronic von Frey device, in which the animals moved about freely in one of the compartments of the enclosure positioned on the metal mesh surface. Following acclimation after cessation of exploratory behaviour, the touch stimulator unit was placed under the animal's paw, using the adjustable angled-mirror to position the filament below the target area of the plantar surface. Then an electrodynamic actuator of proprietary design lifted a straight metal filament, which touched the plantar surface and began to exert an increasing upward force at a preset rate of application until a stop signal (removal of the paw) was attained. The paw withdrawal threshold was obtained in grams. Hyperalgesia or allodynia (decrease of the withdrawal thresholds) was expressed as percentage by comparing the data of each individual animal to the averaged three initial control thresholds.
Resiniferatoxin (RTX) is a potent agonist of Transient Receptor Potential Vanilloid 1 (TRPV1) receptors, which are mainly expressed on capsicin-sensitive sensory nerve ending. Intraplantarly (i.pl.) injection of RTX (0.03 μg/ml; 20 μl) into one of the hindpaws induced an acute inflammation and a robust drop of heat and mechanical thresholds.
The noxious heat threshold of the paw, defined as the lowest temperature evoking nocifensive behaviour—was measured with an increasing-temperature hot plate (IITC Life Science, Woodland Hills, Calif., USA). After habituation, mice were placed onto the plate, which was then heated up from room temperature at a rate of 12° C./min until the animals showing nocifensive behaviour (licking, lifting or shaking one of the hindpaws). The corresponding plate temperature was considered as the noxious heat threshold.
Lines represent thermal and mechanical hyperalgesia before drug injection and 5, 10, 15, 20 min as well as 2, 4, 6, 24 hours, respectively after compound/solvent administration. Results are expressed as means±s.e.m. of the thermo- and mechanonociceptive threshold changes of n=7-8 per groups. Data were analysed with Two-way ANOVA following Bonferroni's post-test in comparison to determine differences between the pre- and post-injection values of the respective groups **p<0.01, *** p<0.001 SZV-1287 vs. saline and ### p<0.001 SZV-1911 vs. saline.

[3] = test system: sciatic nerve ligation-induced cold allodynia; assay: Sciatic nerve ligation-induced cold allodynia in mice (paw withdrawal latency from 0° C. water); assay type: in vivo, male C57Bl/6 mice; details: mouse, injured paw, days 3 and 7 after nerve ligation
Experimental: (§4) On the 3rd and on the 7th day following the nerve ligation, the mechano-nociceptive thresholds were determined directly before and 15 min after i.p. drug administration to observe the difference between pre-injection and post-injection thresholds in mice. We determined the developing cold allodynia following the sciatic nerve ligation at Days 3 and 7. In rats we examined the developing mechanical allodynia just 7 days after the sciatic nerve ligation on the same way like in mice. Only animals with a minimum of 25% hyperalgesia/allodynia were included in the study (Seltzer et al., Pain., 1990, 43(2):205-18; Pintér et al., Naunyn Schmiedebergs Arch Pharmacol., 2002, 366(2):142-50.).
Mice were anaesthesized with a combination of ketamine and xylazine (100 mg/kg and 5 mg/kg i.p. respectively), but in rats Na-pentobarbital (40 mg/kg i.p) were used. […]
A noxious cold stimulus was applied by immersing one of the murine hindpaws in icy water, remaining the temperature steady at 0° C. Cold perception was assessed as the time taken by the animal to pulling out its paw from the cold water, the cut-off time was 180 seconds. […]
The paw withdrawal latency values were determined as % by comparing the latencies measured on day 3 and 7 after the operation to the mean initial latency values. […] Results are expressed as means±s.e.m of the withdrawal behaviour latency changes of n=6-6 mice per groups. […]

[4] = test system: sciatic nerve ligation-induced mechanical allodynia; assay: Sciatic nerve ligation-induced traumatic mononeuropathy, mechanical allodynia in rats (dynamic plantar aesthesiometry); assay type: in vivo, male Wistar rats; details: for change of the mechanonociceptive thresholds, contralateral side of the operated rats / inhibitory effect on mechanical allodynia / mechanical allodynia (decrease of withdrawal threshold vs initial control) after drug injection: rat; for change of the mechanonociceptive thresholds, contralateral side of the operated rats: contralateral paw; for change of the mechanonociceptive thresholds, contralateral side of the operated rats / mechanical allodynia (decrease of withdrawal threshold vs initial control) after drug injection / change of the mechanonociceptive thresholds, sham-operated group: 20 mg/kg i.p.; for inhibitory effect on mechanical allodynia / mechanical allodynia (decrease of withdrawal threshold vs initial control) after drug injection: operated limb; for inhibitory effect on mechanical allodynia: day 7, 20 mg/kg i.p., post- vs pre-injection; for mechanical allodynia (decrease of withdrawal threshold vs initial control) after drug injection: day 7 after nerve ligation, 15 min after administration, mean±s.e.m.; for change of the mechanonociceptive thresholds, sham-operated group: sham-operated rats
Experimental: as §1, §2
Before all experiments one conditioning and three reliable control threshold measurements were performed on three consecutive days. All operations were performed by the same operator, who was blinded to the animal group assignments and the treatment allocation (FIG. 1A for the rat, B for the mouse experimental paradigm).
as §4
Mice were anaesthesized with a combination of ketamine and xylazine (100 mg/kg and 5 mg/kg i.p. respectively), but in rats Na-pentobarbital (40 mg/kg i.p) were used. The common sciatic nerve was exposed unilaterally on the right side high in the thigh and ⅓-½ of the nerve trunk was carefully separated and tightly ligated using a siliconised silk suture (Ethicone 5-0 and 8.0, respectively). Then the wound was closed and the animals were allowed to survive for 8 days (Seltzer, 1990; Malmberg and Basbaum 1998; Bolcskei et al. 2005; Sandor et al. 2010). During this period, signs of spontaneous pain (holding the legs in elevated position transiently for 2-3 days) and mechanical hyperalgesia and cold allodynia developed. In order to investigated the efficacy of these drugs we examined the drop of the mechanical touch sensitivity on Day 3, however the decrease of the mechanical threshold develops fully 7 days after the surgery.
as §3, with “Hyperalgesia or allodynia (decrease of the withdrawal thresholds) was expressed as percentage by comparing the data of each individual animal to the averaged three initial control thresholds.” left out

Row | SMILES | sciatic nerve ligation-induced neuropathic mechanical hyperalgesia [1] | thermonociceptive threshold after formalin application ([2]; 1 hour, basal 44.8±1.7° C., saline treated mice 37.4±3° C.) [°C] | nocifensive behaviour (total duration of paw lickings and liftings), early phase ([2]; formalin i.pl., early phase (0-5 min), vs saline) | nocifensive behaviour (total duration of paw lickings and liftings), late phase ([2]; formalin i.pl., late phase (20-45 min), vs saline) | drop of mechanonociceptive threshold after RTX at 2 hours (RTX-induced hyperalgesia; 20 mg/kg i.p. pretreatment) [%] | drop of heat threshold after intraplantar RTX (RTX-induced hyperalgesia; 20 mg/kg i.p. pretreatment, maintained during 15 minutes, solvent group approx. 8 degree) | acute neurogenic inflammatory heat allodynia (RTX-induced hyperalgesia) | neuropathic cold hyperalgesia (cold allodynia, paw withdrawal latency) [3] | change of the mechanonociceptive thresholds, contralateral side of the operated rats [4] | inhibitory effect on mechanical allodynia [4] | mechanical allodynia (decrease of withdrawal threshold vs initial control) after drug injection [4] [%] | change of the mechanonociceptive thresholds, sham-operated group [4] | sciatic nerve ligation-induced neuropathic mechanical hyperalgesia ([1]; 20 mg/kg) | change of mechanonociceptive threshold after RTX at 4 hours (RTX-induced hyperalgesia; 20 mg/kg i.p. pretreatment, 4 hours, solvent group 35.3±3%) [%]
1 | ON=CCCc1nc(-c2ccccc2)c(-c2ccccc2)o1 [SZV-1287, 3-(4,5-diphenyl-1,3-oxazol-2-yl)propanal oxime] | significantly decreased | 37.5±4 | significantly lower | significantly lower | 22.1±7 | 1-2 °C | moderately decreased | did not influence | No change | approximately 30% | 34.6±7.6 | No change | – | –
2 | C=C(CNN)c1ccccc1 [SZV-1911, (2-phenyl-2-propen-1-yl)hydrazine] | – | – | – | – | 14.7±6 | – | moderately decreased | did not influence | No change | approximately 30% | 32.9±3.4 | No change | significantly diminished; also recorded: significantly decreased | 6.5±6

Reference: patent US9790193B2, “Semicarbazide-sensitive amine oxidase inhibitors for use as analgesics in traumatic neuropathy and neurogenic inflammation” (PÉCSI TUDOMÁNYEGYETEM, priority 2014, dated 2017)
